Experimental data reported in patent US7700602B2, “Amino-5,5-diphenylimidazolone derivatives for the inhibition of β-secretase” (Wyeth LLC, priority 2004, dated 2010).
Read-outs that look alike come from different tables or passages of the source.

What was measured:
[1] = biological target: human BACE1 (Homo sapiens, UniProt P56817); test: Fluorescent kinetic assay, inhibition of BACE1 (WABC-6 peptide substrate); format: biochemical;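 note: fluorescence monitored at 320 nm excitation and 420 nm emission every 40 s over 30 min, with the substrate cleavage rate taken from the linear slope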
[2] = biological target: T1, human BACE2 (Homo sapiens, UniProt Q9Y5Z0); test: Fluorescent Kinetic Assay for Human Recombinant BACE 2 (selectivity BACE1/BACE2); format: biochemical; details: selectivity BACE1 over BACE2; 1.5 nM human BACE2, 25 μM substrate, pH 4.5;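 note: cleavage rate from the linear slope of fluorescence (excitation 320 nm, emission 420 nm) recorded every 40 s over 30 min at room temperature, sodium acetate buffer with 0.05% CHAPS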
T1 sequence (Q9Y5Z0 63-518): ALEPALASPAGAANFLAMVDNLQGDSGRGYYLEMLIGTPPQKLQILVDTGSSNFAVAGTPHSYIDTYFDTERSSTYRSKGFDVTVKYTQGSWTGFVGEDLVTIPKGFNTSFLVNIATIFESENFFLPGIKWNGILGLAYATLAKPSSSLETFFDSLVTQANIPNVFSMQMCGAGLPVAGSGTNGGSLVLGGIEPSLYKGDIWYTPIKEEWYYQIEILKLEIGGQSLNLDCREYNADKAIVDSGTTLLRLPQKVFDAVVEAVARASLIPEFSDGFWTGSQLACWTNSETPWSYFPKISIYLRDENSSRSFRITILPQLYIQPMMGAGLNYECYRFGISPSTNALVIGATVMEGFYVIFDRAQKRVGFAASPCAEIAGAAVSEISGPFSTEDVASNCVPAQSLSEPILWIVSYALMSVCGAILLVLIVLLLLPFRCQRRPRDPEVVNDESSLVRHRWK

[3] = 10 nM enzyme, 25 μM substrate WABC-6, pH 4.5, room temperature, read-out: IC50 (μM) BACE1

Chain of human BACE1 (P56817 46-501): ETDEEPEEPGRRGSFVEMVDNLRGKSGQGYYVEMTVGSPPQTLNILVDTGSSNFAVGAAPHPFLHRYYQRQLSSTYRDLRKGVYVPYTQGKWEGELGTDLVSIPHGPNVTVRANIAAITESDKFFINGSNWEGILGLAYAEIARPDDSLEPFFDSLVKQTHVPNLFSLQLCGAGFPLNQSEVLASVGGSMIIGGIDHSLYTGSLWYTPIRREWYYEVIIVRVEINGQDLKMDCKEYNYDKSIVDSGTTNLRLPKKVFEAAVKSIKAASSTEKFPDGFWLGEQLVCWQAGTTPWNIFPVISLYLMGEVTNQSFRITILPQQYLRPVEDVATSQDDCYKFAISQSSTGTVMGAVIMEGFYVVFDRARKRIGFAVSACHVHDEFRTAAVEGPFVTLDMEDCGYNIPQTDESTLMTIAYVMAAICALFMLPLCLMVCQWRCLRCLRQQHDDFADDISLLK

COc1ccc(C2(c3ccc(C#N)c(-c4cccnc4)c3)N=C(N)N(C)C2=O)cc1C (stereo not drawn) [Example 5, 4-[2-amino-4-(4-methoxy-3-methylphenyl)-1-methyl-5-oxo-4,5-dihydro-1H-imidazol-4-yl]-2-pyridin-3-ylbenzonitrile]
IC50 [1]: 0.11 to 1 µM

CCN1C(=O)C(c2cccc(-c3cccnc3)c2)(c2ccc(OC)c(C)c2)N=C1N (stereo not drawn) [Example 8]
IC50 [1, 3]: 0.01 to 0.1 µM | BACE1/BACE2 selectivity [2]: II (II = 10-100-fold selectivity)

COc1ccc(C2(c3cccc(-c4cnccn4)c3)N=C(N)N(C)C2=O)cc1C (stereo not drawn) [Example 9]
IC50 [1, 3]: 0.01 to 0.1 µM | BACE1/BACE2 selectivity [2]: II (II = 10-100-fold selectivity)

Cc1cc(C2(c3cccc(-c4cccnc4)c3)N=C(N)N(C)C2=O)ccc1O (stereo not drawn) [Example 10]
IC50 [1, 3]: 0.01 to 0.1 µM | BACE1/BACE2 selectivity [2]: II (II = 10-100-fold selectivity)

CCCOc1cc(C2(c3cccc(-c4cccnc4)c3)N=C(N)N(C)C2=O)ccc1OC (stereo not drawn) [Example 16]
IC50 [1, 3]: 0.01 to 0.1 µM | BACE1/BACE2 selectivity [2]: III (III = <10-fold selectivity)

CCCCOc1cc(C2(c3cccc(-c4cccnc4)c3)N=C(N)N(C)C2=O)ccc1OC (stereo not drawn) [Example 17]
IC50 [1, 3]: 0.01 to 0.1 µM | BACE1/BACE2 selectivity [2]: III (III = <10-fold selectivity)

COc1ccc(C2(c3cccc(-c4cccnc4)c3)N=C(N)N(C)C2=O)cc1OC(C)C (stereo not drawn) [Example 18]
IC50 [1]: 0.01 to 0.1 µM | BACE1/BACE2 selectivity [2]: II (II = 10-100-fold selectivity)

COc1ccc(C2(c3cccc(-c4cccnc4)c3)N=C(N)N(C)C2=O)cc1C#N (stereo not drawn) [Example 20]
IC50 [1]: 0.11 to 1 µM | BACE1/BACE2 selectivity [2]: III (III = <10-fold selectivity)

COc1ccc(C2(c3cccc(-c4cccnc4)c3)N=C(N)N(C)C2=O)cc1F (stereo not drawn) [Example 21]
IC50 [1]: 0.01 to 0.1 µM

CCOc1cc(C2(c3cccc(-c4cccnc4)c3)N=C(N)N(C)C2=O)ccc1OC (stereo not drawn) [Example 24]
IC50 [1]: 0.01 to 0.1 µM | BACE1/BACE2 selectivity [2]: II (II = 10-100-fold selectivity)

CN1C(=O)C(c2ccc(OC(F)(F)F)cc2)(c2cccc(-c3ncccn3)c2)N=C1N (stereo not drawn) [Example 37, 2-Amino-3-methyl-5-(3-pyrimidin-2-ylphenyl)-5-[4-(trifluoromethoxy)phenyl]-3,5-dihydro-4H-imidazol-4-one]
IC50 [1, 3]: 0.01 to 0.1 µM | BACE1/BACE2 selectivity [2]: III (III = <10-fold selectivity)

CN1C(=O)C(c2ccc(OC(F)(F)F)c(F)c2)(c2ccc(F)c(-c3cncc(F)c3)c2)N=C1N (stereo not drawn) [Example 41, 2-Amino-5-[4-fluoro-3-(5-fluoropyridin-3-yl)phenyl]-5-[3-fluoro-4-(trifluoromethoxy)phenyl]-3-methyl-3,5-dihydro-imidazol-4-one]
IC50 [1, 3]: 0.11 to 1 µM | BACE1/BACE2 selectivity [2]: II (II = 10-100-fold selectivity)

CN1C(=O)C(c2ccc(OC(F)(F)F)c(F)c2)(c2ccc(F)c(-c3cccnc3F)c2)N=C1N (stereo not drawn) [Example 43]
IC50 [1, 3]: 0.01 to 0.1 µM | BACE1/BACE2 selectivity [2]: II (II = 10-100-fold selectivity)

CN1C(=O)C(c2ccc(OC(F)(F)F)cc2)(c2cccc(-c3cncnc3)c2F)N=C1N (stereo not drawn) [Example 48]
IC50 [1, 3]: > 1 µM | BACE1/BACE2 selectivity [2]: II (II = 10-100-fold selectivity)

COc1ncccc1-c1cccc(C2(c3ccc(OC(F)(F)F)cc3)N=C(N)N(C)C2=O)c1 (stereo not drawn) [Example 52]
IC50 [1, 3]: 0.11 to 1 µM | BACE1/BACE2 selectivity [2]: II (II = 10-100-fold selectivity)

COc1ccc(C2(c3ccc(F)c(-c4ccc(F)nc4)c3)N=C(N)N(C)C2=O)cc1C(F)(F)F (stereo not drawn) [Example 57]
IC50 [1, 3]: 0.01 to 0.1 µM | BACE1/BACE2 selectivity [2]: II (II = 10-100-fold selectivity)

COc1ccc(C2(c3ccc(F)c(-c4cccnc4F)c3)N=C(N)N(C)C2=O)cc1C(F)(F)F (stereo not drawn) [Example 58]
IC50 [1, 3]: 0.01 to 0.1 µM | BACE1/BACE2 selectivity [2]: II (II = 10-100-fold selectivity)

COc1ccc(C2(c3cccc(-c4cccnc4F)c3)N=C(N)N(C)C2=O)cc1C (stereo not drawn) [Example 59]
IC50 [1, 3]: 0.01 to 0.1 µM | BACE1/BACE2 selectivity [2]: II (II = 10-100-fold selectivity)

COc1ccc(C2(c3ccc(F)c(-c4cncc(F)c4)c3)N=C(N)N(C)C2=O)cc1 (stereo not drawn) [Example 60]
IC50 [1, 3]: 0.01 to 0.1 µM | BACE1/BACE2 selectivity [2]: II (II = 10-100-fold selectivity)

COc1ccc(C2(c3ccc(F)c(-c4cncc(F)c4)c3)N=C(N)N(C)C2=O)cc1C (stereo not drawn) [Example 61]
IC50 [1, 3]: 0.01 to 0.1 µM | BACE1/BACE2 selectivity [2]: II (II = 10-100-fold selectivity)

COc1ccc(C2(c3ccc(F)c(-c4cccnc4F)c3)N=C(N)N(C)C2=O)cc1 (stereo not drawn) [Example 62]
IC50 [1, 3]: 0.01 to 0.1 µM | BACE1/BACE2 selectivity [2]: II (II = 10-100-fold selectivity)

COc1ccc(C2(c3ccc(F)c(-c4cncnc4)c3)N=C(N)N(C)C2=O)cc1 (stereo not drawn) [Example 63]
IC50 [1, 3]: 0.01 to 0.1 µM | BACE1/BACE2 selectivity [2]: I (I = >100-fold selectivity)

CN1C(=O)C(c2ccc(OC(F)(F)F)cc2)(c2cccc(-c3ccc(F)nc3)c2)N=C1N (stereo not drawn) [Example 65]
IC50 [1, 3]: 0.11 to 1 µM | BACE1/BACE2 selectivity [2]: II (II = 10-100-fold selectivity)

CCOc1ccc(C2(c3cccc(-c4cncc(OC)c4)c3)N=C(N)N(C)C2=O)cc1OCC (stereo not drawn) [Example 67]
IC50 [1, 3]: 0.01 to 0.1 µM | BACE1/BACE2 selectivity [2]: III (III = <10-fold selectivity)

CCOc1ccc(C2(c3cccc(-c4cccnc4OC)c3)N=C(N)N(C)C2=O)cc1OCC (stereo not drawn) [Example 68]
IC50 [1, 3]: 0.11 to 1 µM | BACE1/BACE2 selectivity [2]: III (III = <10-fold selectivity)

CCOc1ccc(C2(c3cccc(-c4ccc(F)nc4)c3)N=C(N)N(C)C2=O)cc1OCC (stereo not drawn) [Example 69]
IC50 [1, 3]: 0.01 to 0.1 µM | BACE1/BACE2 selectivity [2]: III (III = <10-fold selectivity)

CCOc1ccc(C2(c3cccc(-c4cccnc4F)c3)N=C(N)N(C)C2=O)cc1OCC (stereo not drawn) [Example 70]
IC50 [1, 3]: 0.01 to 0.1 µM | BACE1/BACE2 selectivity [2]: II (II = 10-100-fold selectivity)

COc1cncc(-c2cc(C3(c4ccc(OC(F)(F)F)cc4)N=C(N)N(C)C3=O)ccc2F)c1 (stereo not drawn) [Example 71]
IC50 [1, 3]: 0.01 to 0.1 µM | BACE1/BACE2 selectivity [2]: III (III = <10-fold selectivity)

COc1ncccc1-c1cc(C2(c3ccc(OC(F)(F)F)cc3)N=C(N)N(C)C2=O)ccc1F (stereo not drawn) [Example 72]
IC50 [1, 3]: 0.11 to 1 µM | BACE1/BACE2 selectivity [2]: II (II = 10-100-fold selectivity)

CN1C(=O)C(c2ccc(OC(F)(F)F)cc2)(c2ccc(F)c(-c3ccc(F)nc3)c2)N=C1N (stereo not drawn) [Example 73]
IC50 [1, 3]: 0.11 to 1 µM | BACE1/BACE2 selectivity [2]: II (II = 10-100-fold selectivity)

CN1C(=O)C(c2ccc(OC(F)(F)F)cc2)(c2ccc(F)c(-c3cccnc3F)c2)N=C1N (stereo not drawn) [Example 74]
IC50 [1, 3]: 0.01 to 0.1 µM | BACE1/BACE2 selectivity [2]: II (II = 10-100-fold selectivity)

COc1ccc(C2(c3cccc(-c4cccnc4OC)c3)N=C(N)N(C)C2=O)cc1C (stereo not drawn) [Example 75]
IC50 [1, 3]: 0.11 to 1 µM | BACE1/BACE2 selectivity [2]: II (II = 10-100-fold selectivity)

CN1C(=O)C(c2ccc(OC(F)(F)F)c(F)c2)(c2ccc(F)c(-c3cnccc3F)c2)N=C1N (stereo not drawn) [Example 78]
IC50 [1, 3]: 0.01 to 0.1 µM | BACE1/BACE2 selectivity [2]: II (II = 10-100-fold selectivity)

COc1ccc(C2(c3ccc(F)c(-c4cncc(Cl)c4)c3)N=C(N)N(C)C2=O)cc1 (stereo not drawn) [Example 80]
IC50 [1, 3]: 0.01 to 0.1 µM | BACE1/BACE2 selectivity [2]: III (III = <10-fold selectivity)

CCOc1ccc(C2(c3cccc(-c4cnccc4F)c3)N=C(N)N(C)C2=O)cc1OCC (stereo not drawn) [Example 81]
IC50 [1, 3]: 0.01 to 0.1 µM | BACE1/BACE2 selectivity [2]: II (II = 10-100-fold selectivity)

CN1C(=O)C(c2ccc(OC(F)(F)F)cc2)(c2cccc(-c3cnccc3F)c2)N=C1N (stereo not drawn) [Example 82]
IC50 [1, 3]: 0.01 to 0.1 µM | BACE1/BACE2 selectivity [2]: II (II = 10-100-fold selectivity)

COc1ccc(C2(c3ccc(F)c(-c4cnccc4F)c3)N=C(N)N(C)C2=O)cc1 (stereo not drawn) [Example 83]
IC50 [1, 3]: 0.01 to 0.1 µM | BACE1/BACE2 selectivity [2]: II (II = 10-100-fold selectivity)

CN1C(=O)C(c2ccc(OC(F)(F)F)cc2)(c2cc(-c3cccnc3)ccc2F)N=C1N (stereo not drawn) [Example 84]
IC50 [1, 3]: 0.11 to 1 µM | BACE1/BACE2 selectivity [2]: I (I = >100-fold selectivity)

CN1C(=O)C(c2ccc(OC(F)F)cc2)(c2ccc(F)c(-c3ccc(F)nc3)c2)N=C1N (stereo not drawn) [Example 88]
IC50 [1, 3]: 0.01 to 0.1 µM | BACE1/BACE2 selectivity [2]: II (II = 10-100-fold selectivity)

COc1ccc([C@@]2(c3cccc(-c4cccnc4F)c3)N=C(N)N(C)C2=O)cc1C [Example 102A, (5R)-2-Amino-5-[3-(2-fluoropyridin-3-yl)phenyl]-5-(4-methoxy-3-methylphenyl]-3-methyl-3,5-dihydro-4H-imidazol-4-one]
IC50 [1]: 0.11 to 1 µM

COc1ccc([C@]2(c3cccc(-c4cccnc4F)c3)N=C(N)N(C)C2=O)cc1C [Example 102B, (5S)-2-Amino-5-[3-(2-fluoropyridin-3-yl)phenyl]-5-(4-methoxy-3-methylphenyl]-3-methyl-3,5-dihydro-4H-imidazol-4-one]
IC50 [1]: 0.01 to 0.1 µM
